Like-named read-outs stand apart in the source and are kept apart here. Numbered stars: 1 amine (or outer) side, 2 acyl side, 3 side chain; on linkers, the order of the positions; unused ones are H or OH. Bridge positions count the residues as written; N and C are the ends. Square brackets hold non-standard residues; d marks the D form. Peptide text beside a SMILES is read from it. I, II: the chains in the order shown. Actinocin(9to1) = Cc1c2oc3c(C)ccc(C(=O)[*:1])c3nc-2c(C(=O)[*:2])c(N)c1=O; NMeV = CN[C@H](C(=O)O)C(C)C; Sar = CNCC(=O)O
How the values were obtained:
Format in all cases: cell-based, Saccharomyces cerevisiae
[1] = test system: 5247 (wt); test: Growth inhibition (sensitivity to cytotoxic products) as measure of permeability, wild-type strain (Examples 2 and 4); details: for EC50: Saccharomyces cerevisiae; for RATIO: EC50 relative to wild type 5247, 2880 min
Experimental: (§1) The strain of yeast used is the strain S. cerevisiae 5247 (Marcireau, 1992) of the ura3, trp1, MAT α genotype. This strain is transformed according to the method described by Gietz (Gietz, 1992).
(§2) The permeability of the yeasts obtained in Example 1 is determined by measuring the sensitivity to different cytotoxic products. The different yeasts are inoculated at an optical density of 0.05 to 700 nm in YNB minimum medium correctly supplemented with bases and amino acids in the presence of an increasing concentration of xenobiotics. The cultures are placed at 28° C. and at 200 rpm for 48 hours. The optical density at 700 nm is then measured. The EC50 is then determined as the xenobiotic concentration inhibiting the growth of the yeast by half compared with a control without xenobiotic.
(§3) This evaluation was carried out according to the procedure described in Example 2.

[2] = test system: yCM63 (Δerg4); test: Growth inhibition (sensitivity to cytotoxic products) as measure of permeability, strain yCM63; details: for RATIO: EC50 5247 (wt) / EC50 yCM63, 2880 min; for EC50: Saccharomyces cerevisiae, YNB minimum medium, 28° C., 48 hours, OD 700 nm
Experimental: (§4) The strain 5247 is transformed as described in 3) with the fragments prepared as described in 2a), 2b), 2c). After elimination of the selectable marker, the strains yCM30 (Δpdr1, ura3, trp1, MAT α), yCM63 (Δerg4, ura3, trp1, MAT α) and yCM65 (Δpdr1, Δerg4, ura3, trp1, MAT α) are obtained.
as §2

[3] = test system: yCM30 (Δpdr1); test: Growth inhibition (sensitivity to cytotoxic products) as measure of permeability, strain yCM30; details: for EC50: Saccharomyces cerevisiae; for RATIO: EC50 5247 (wt) / EC50 yCM30, 2880 min
Experimental: as §4, §2, §3

[4] = test system: yCM65 (Δpdr1, Δerg4); test: Growth inhibition (sensitivity to cytotoxic products) as measure of permeability, strain yCM65; details: for EC50: Saccharomyces cerevisiae; for RATIO: EC50 5247 (wt) / EC50 yCM65, 2880 min
Experimental: as §4, §2

[5] = test system: yCM55 (Δerg6); test: Growth inhibition (sensitivity to cytotoxic products) as measure of permeability, strain yCM55; details: for EC50: Saccharomyces cerevisiae; for RATIO: EC50 5247 (wt) / EC50 yCM55, 2880 min
Experimental: as §2
The strain 5247 is transformed by the fragment prepared as described in 1a. After elimination of the selectable marker, the strain yCM55 (Δerg6,ura3, trp1, MAT α) is obtained.
as §3

[6] = test system: yCM57 (Δpdr1, Δerg6); test: Growth inhibition (sensitivity to cytotoxic products) as measure of permeability, strain yCM57; details: for RATIO: EC50 5247 (wt) / EC50 yCM57, 2880 min
Experimental: as §2
The strain yCM30 is transformed by the fragment prepared as described in la. After elimination of the selectable marker, the strain yCM57 (Δpdr1, Δerg6, ura3, trp1, MAT α) is obtained.
as §3

[7] = test system: 5247 (wt); test: Growth inhibition (sensitivity to cytotoxic products) as measure of permeability, wild-type strain (Example 6)
Experimental: as §1
(§5) The permeability of the yeast strains 5247 and yCM61 is determined by measurement of the sensitivity to different cytotoxic products. The different yeasts are inoculated at an optical density of 0.05 to 700 nm in YNB minimum medium correctly supplemented with bases and amino acids in the presence of an increasing concentration of xenobiotics. The cultures are placed at 28° C. and at 200 rpm for 48 hours. The optical density at 700 nm is then measured. The EC50 is determined as the xenobiotic concentration inhibiting the growth of the yeast by half compared with a control without xenobiotic.

[8] = test system: yCM61 (Δpdr1, Δpdr5, Δsnq2, Δerg6); test: Growth inhibition (sensitivity to cytotoxic products) as measure of permeability, strain yCM61 (Example 6)
Excerpt: The strain yCM30 is transformed by the fragment prepared as described in Example 5 in 1a. After elimination of the selectable marker, the strain yCM45 (Δpdr1, Δpdr5, ura3, trp1, MAT α) is obtained. The strain yCM45 is transformed by the fragment prepared as described in Example 5 in 1b. After elimination of the selectable marker, the strain yCM51 (Δpdr1, Δpdr5, Δsnq2, ura3, trp1, MAT α) is obtained. The strain yCM51 is transformed by the fragment prepared as described in Example 1 in 1a. After elimination of the selectable marker, the strain yCM61 (Δpdr1, Δpdr5, Δsnq2, Δerg6, ura3, trp1, MAT α) is obtained.
as §5

[9] = strain 5247 (wt), YNB minimum medium, 28° C., 48 hours, OD 700 nm, read-out: EC50
[10] = strain yCM30 (Δpdr1), YNB minimum medium, 28° C., 48 hours, OD 700 nm, read-out: EC50
[11] = strain yCM65 (Δpdr1, Δerg4), YNB minimum medium, 28° C., 48 hours, OD 700 nm, read-out: EC50
[12] = strain yCM55 (Δerg6), YNB minimum medium, 28° C., 48 hours, OD 700 nm, read-out: EC50
[13] = EC50 5247 (wt) / EC50 yCM61, 2880 min
[14] = Saccharomyces cerevisiae, Example 6, strain 5247 (wt), YNB minimum medium, 28° C., 48 hours, OD 700 nm, read-out: EC50
[15] = Saccharomyces cerevisiae, Example 6, strain yCM61 (Δpdr1, Δpdr5, Δsnq2, Δerg6), YNB minimum medium, 28° C., 48 hours, OD 700 nm, read-out: EC50

SMILES: Cc1c2oc3c(C)ccc(C(=O)N[C@@H]4C(=O)N[C@H](C(C)C)C(=O)N5CCC[C@H]5C(=O)N(C)CC(=O)N(C)[C@@H](C(C)C)C(=O)O[C@@H]4C)c3nc-2c(C(=O)N[C@@H]2C(=O)N[C@H](C(C)C)C(=O)N3CCC[C@H]3C(=O)N(C)CC(=O)N(C)[C@@H](C(C)C)C(=O)O[C@@H]2C)c(N)c1=O [ACTINOMYCIN D, actinomycin D] (I: T[dV]P[Sar][NMeV] / II: T[dV]P[Sar][NMeV]; ester I:1-I:C, II:1-II:C; linker I:N-II:N via Actinocin(9to1))
- EC50 [1, 9]: 23.9 µM
- RATIO ([1]; strain 5247 (wt)): 1
- RATIO [2]: 3.7
- EC50 [2]: 6.4 µM
- EC50 [3, 10]: 12.7 µM
- RATIO ([3]; strain yCM30 (Δpdr1)): 1.9
- EC50 [4, 11]: 5.8 µM
- RATIO ([4]; strain yCM65 (Δpdr1, Δerg4)): 4.1
- EC50 [5, 12]: 5.6 µM
- RATIO ([5]; strain yCM55 (Δerg6)): 4.3
- IC50 ([6]; Saccharomyces cerevisiae, strain yCM57 (Δpdr1, Δerg6), YNB minimum medium, 28° C., 48 hours, OD 700 nm, read-out: EC50 (the source's name)): 0.75 µM
- RATIO ([6]; strain yCM57 (Δpdr1, Δerg6)): 31.9

SMILES: CC[C@@]1(O)C(=O)OCc2c1cc1n(c2=O)Cc2cc3ccccc3nc2-1 [Camptothecin]
- EC50 ([7]; Saccharomyces cerevisiae, 48 h): > 574 µM
- RATIO [8, 13]: > 100
- EC50 ([8]; Saccharomyces cerevisiae, 48 h): 5.74 µM

SMILES: C[C@@H]1C[C@@H]([C@H](O)CC2CC(=O)NC(=O)C2)C(=O)[C@@H](C)C1 [Cycloheximide]
- EC50 ([1]; 48 h): 53 µM
- RATIO ([1]; strain 5247 (wt)): 1
- EC50 ([3]; 48 h): 2.5 µM
- RATIO ([3]; strain yCM30 (Δpdr1)): 21.2
- EC50 ([4]; 48 h): 0.5 µM
- RATIO ([4]; strain yCM65 (Δpdr1, Δerg4)): 106
- EC50 ([5]; 48 h): 2.3 µM
- RATIO ([5]; strain yCM55 (Δerg6)): 23
- IC50 ([6]; Saccharomyces cerevisiae, 48 h, read-out: EC50): 0.2 µM
- RATIO ([6]; strain yCM57 (Δpdr1, Δerg6)): 265
- EC50 ([7]; Saccharomyces cerevisiae, 48 h): 71 µM
- RATIO [8, 13]: 500
- EC50 ([8]; Saccharomyces cerevisiae, 48 h): 0.142 µM

SMILES: COc1cccc2c1C(=O)c1c(O)c3c(c(O)c1C2=O)C[C@@](O)(C(=O)CO)C[C@@H]3O[C@H]1C[C@H](N)[C@H](O)[C@H](C)O1 [DOXORUBICIN, doxorubicin]
- EC50 [1, 9]: 40.5 µM
- RATIO ([1]; strain 5247 (wt)): 1
- RATIO [2]: 4.4
- EC50 [2]: 9.2 µM
- EC50 [3, 10]: 18.4 µM
- RATIO ([3]; strain yCM30 (Δpdr1)): 2.2
- EC50 [4, 11]: 5.15 µM
- RATIO ([4]; strain yCM65 (Δpdr1, Δerg4)): 7.8
- EC50 [5, 12]: 12 µM
- RATIO ([5]; strain yCM55 (Δerg6)): 3.4
- EC50 ([6]; Saccharomyces cerevisiae, strain yCM57 (Δpdr1, Δerg6), YNB minimum medium, 28° C., 48 hours, OD 700 nm): 1.7 µM
- RATIO ([6]; strain yCM57 (Δpdr1, Δerg6)): 23.8

SMILES: CC[C@H](C)C(=O)O[C@H]1C[C@@H](C)C=C2C=C[C@H](C)[C@H](CC[C@@H]3C[C@@H](O)CC(=O)O3)[C@H]21 [Lovastatin]
- EC50 [7, 14]: 143 µM
- EC50 [8, 15]: 3.8 µM
- RATIO ([8]; s. cerevisiae ycm61, 2880 min): 37

SMILES: CO[C@@H]1[C@@H](OC(N)=O)[C@@H](O)[C@H](Oc2ccc3c(O)c(NC(=O)c4ccc(O)c(CC=C(C)C)c4)c(=O)oc3c2C)OC1(C)C [Novobiocin]
- EC50 [7, 14]: 245 µM
- RATIO [8, 13]: 27
- EC50 [8, 15]: 9 µM

SMILES: Cc1cc(C)nc(NC(=O)NS(=O)(=O)c2ccccc2C(=O)O)n1 [Sulphomethuron]
- EC50 ([7]; Example 6, strain 5247 (wt), YNB minimum medium, 28° C., 48 hours, OD 700 nm, read-out: EC50): 6.9 µM
- RATIO [8, 13]: > 50
- EC50 ([8]; Example 6, strain yCM61 (Δpdr1, Δpdr5, Δsnq2, Δerg6), YNB minimum medium, 28° C., 48 hours, OD 700 nm, read-out: EC50): < 0.13 µM

Reference: patent publication US5821038A, “Yeast with modified permeability” (priority 1994, dated 1998)
